From PubChem BioAssay (NCI)
Values joined by “and” are separate entries in the source; they are usually repeats but may differ in a detail not shown here. Identical values can stand only once.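 Each compound was tested at five concentrations against cells in 96-well plates for 48 hours. Here, GI50 denotes the concentration required for 50% inhibition of growth. TGI marks complete inhibition of growth.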

What was measured:
Test in all cases: growth of human tumour cells (NCI), 48 h
U251 CNS = test system: U251 CNS
IGROV1 ovarian = test system: IGROV1 ovarian
KM12 colon = test system: KM12 colon
HCT-116 colon = test system: HCT-116 colon
HCT-15 colon = test system: HCT-15 colon
HOP-62 NSCLC = test system: HOP-62 NSCLC
HOP-92 NSCLC = test system: HOP-92 NSCLC
K-562 leukemia = test system: K-562 leukemia
MDA-MB-435 = test system: MDA-MB-435
HCC-2998 colon = test system: HCC-2998 colon

SMILES	TGI (U251 CNS)	TGI (IGROV1 ovarian)	TGI (KM12 colon)	TGI (HCT-116 colon)	TGI (HCT-15 colon)	TGI (HOP-62 NSCLC) [µM]	TGI (HOP-92 NSCLC)	TGI (K-562 leukemia) [µM]	TGI (MDA-MB-435)	GI50 (U251 CNS)	GI50 (IGROV1 ovarian)	GI50 (KM12 colon)	GI50 (HCC-2998 colon)	TGI (HCC-2998 colon)	GI50 (HCT-15 colon)	GI50 (HOP-62 NSCLC)	GI50 (HOP-92 NSCLC)	GI50 (K-562 leukemia)	GI50 (MDA-MB-435)	GI50 (HCT-116 colon)
Clc1ccc(/C=C/c2nc(Cl)c(-c3ccc(Cl)cc3)c(Cl)n2)cc1	> 100 µM	> 100 µM	> 100 µM	> 100 µM	> 100 µM	> 100	> 100 µM	> 100	> 100 µM											
Cc1cc(Cl)ccc1Nc1nc(C(F)(F)F)ccc1C(=O)Nc1cccc(C(F)(F)F)c1	9.72 µM	22.7 µM	12.1 µM		7.35 µM	11.9	8.16 µM	11.2	16.1 µM	3 µM	3.88 µM	2.1 µM	3.3 µM	15.7 µM	2.56 µM	2.6 µM	2.21 µM	2.59 µM	3.76 µM	
CC1(C)N=C(Oc2ccccc2)n2nccc2N1	> 100 µM	> 100 µM	> 100 µM	> 100 µM	> 100 µM	> 100	> 100 µM	> 100						> 100 µM						
N#CC(C(=O)CCC(=O)Nc1ccc(Cl)c(Cl)c1)c1ccc(Cl)cc1 (stereo not drawn)	> 100 µM	> 100 µM	> 100 µM	> 100 µM	> 100 µM	> 100	> 100 µM	90.5						> 100 µM						
COc1ccc(C=C2C(=O)NC(=O)NC2=O)cc1OCc1ccccc1									56.1 µg/mL	31.2 µg/mL	27.1 µg/mL	33 µg/mL			30.8 µg/mL	36.9 µg/mL	57.2 µg/mL	30.8 µg/mL	20.2 µg/mL	40.5 µg/mL
O=C1c2ccn(CCCCN(CCO)CCO)c2C(=O)c2c1c(O)c1ccccc1c2O		> 100 µM	3.59 µM		2.14 µM	> 50.5	50.8 µM	> 100			4.97 µM	1.75 µM	3.55 µM	14.2 µM	0.948 µM	16.3 µM	17.7 µM	4.41 µM	3.04 µM	2.04 µM
O=S(=O)(N/N=C/c1ccc(Cl)cc1Cl)c1ccccc1	> 100 µM	> 100 µM	> 100 µM	> 100 µM	> 100 µM	> 100	94.9 µM	> 100						> 100 µM						
O=C1NN=CN2C(=O)CCC12 (stereo not drawn)	> 100 µM	> 100 µM	> 100 µM	> 100 µM	> 100 µM	> 100	> 100 µM	> 100						> 100 µM						
COc1ccc2c(c1OC)C(=O)O[C@@H]2[C@H]1c2c(c(Br)c3c(c2OC)OCO3)CCN1C	> 100 µM	> 100 µM	> 100 µM	> 100 µM	> 100 µM	91.2	> 100 µM	> 100	29.6 µM	8.8 µM	7.77 µM	4.49 µM			4.67 µM	6.47 µM	21.7 µM	2.73 µM	3.55 µM	4.69 µM
COc1cc2c3cc1Oc1c(OC)c(OC)cc4c1C(Cc1ccc(cc1)Oc1cc(ccc1O)CC3N(C)CC2)N(C)CC4 (stereo not drawn)	23.8 µM and 30.5 µM	43.8 µM and 29.4 µM	24.8 µM and 26.2 µM	21 µM and > 100 µM	23.2 µM and 14.3 µM	34.7	38.7 µM and 41.3 µM		31.9 µM				11.7 µM and 2.71 µM	25 µM and 11.7 µM	8.8 µM and 3.19 µM					
